In the test the test system is HOP-62 multicell spheroids with HUVEC/MSC, viability. Put plainly: Anticancer human tumor HOP-62 cell line growth inhibition [KRAS2].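 For all read-outs here: viability read after a week of compound exposure.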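 For viability, T/C: 100% = DMSO vehicle-treated spheroids.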 Conditions: for viability, T/C: stronger effect = lower value. The source says:
Multicellular complex tumor spheroid response to RAS pathway inhibitors in combination with a targeted agents in patient-derived cell lines with oncogenic KRAS variants from multiple cancer types
A high-throughput screen of multi-cell type tumor spheroids was designed to identify active combinations of targeted small molecules and KRAS pathway inhibitors. Complex spheroids include a stromal component modeled by human endothelial cells (HUVEC) and fibroblasts modeled by human mesenchymal stem cells (MSCs). The concentration ranges selected for each drug and investigational agent were based upon clinically achievable concentrations if the clinical Cmax of the agent was known.
Compounds. The drugs and investigational agents: BI-3406 (NSC825286), BAY-293 (NSC824723), batoprotafib (TNO155; NSC825523), sotorasib (AMG 510; NSC818433), MRTX1257 (NSC819558), elimusertib (BAY 1895344; NSC800525), molibresib (GSK525762; NSC774829), temuterkib (LY3214996; NSC803410), venetoclax (NSC766270), alisertib (NSC759677), olaparib (NSC753686), talazoparib (NSC767125), erdafitinib (NSC781556), ipatasertib (NSC767898), cabozantinib (NSC761068), nintedanib (NSC756659), abemaciclib (NSC768073), docetaxel (NSC628503), trametinib (NSC758246), and sapanisertib (NSC764658) were obtained from the National Cancer Institute (NCI) Developmental Therapeutics Program Chemical Repository. The FDA-approved anticancer drug set is available from the Developmental Therapeutics Program. […] The stock solutions were prepared in dimethyl sulfoxide (DMSO, Sigma-Aldrich, St. Louis, MO, cat. D2650) at 800-fold the tested concentration and stored at -70 degrees C prior to their use. All drugs and investigational agents were tested over a range starting from a high concentration at or near the clinical Cmax and decreasing in half-log increments. If the clinical Cmax for an agent had not been determined, the highest concentration tested was 10 microM.
Cell Culture. All cells were maintained in an incubator at 37 degrees C and 5% CO2 with 95% humidity. The PDC lines were cultured according to standard operating procedures established by the NCI PDMR (https://pdmr.cancer.gov/sops/default.htm). Briefly, all PDCs were thawed and cultured in Matrigel-coated flasks prepared with a working solution of 1X Ham's F-12 nutrient mix, without supplementation (Invitrogen, Waltham, MA, cat. 11765054), 100 U/mL penicillin-streptomycin (Invitrogen, cat. 15140122), and 2.5% Matrigel (Corning Inc., Corning, NY, cat. 354248) for the first three passages. All PDCs were cultured in complete DMEM/F-12 media containing advanced DMEM/F-12 (Invitrogen, cat. 12634028), 4.9% defined fetal bovine serum, heat inactivated (HyClone Laboratories Inc., Logan, UT, cat. SH30070.03HI), 389 ng/mL hydrocortisone (Sigma-Aldrich, cat. H4001), 9.7 ng/mL human EGF recombinant protein (Invitrogen, cat. PHG0313), 23.4 microg/mL adenine (Sigma-Aldrich, cat. A2786), 97.3 U/mL penicillin-streptomycin (Invitrogen, cat. 15140122), 1.9 mM L-glutamine (Invitrogen, cat. 25030081), and 9.7 microM Y-27632 dihydrochloride (Tocris Bioscience, Bristol, United Kingdom, cat. 1254). The PDCs were cultured in complete DMEM/F12 media without 9.7 microM Y-27632 dihydrochloride for at least two passages prior to the screen. The established cell line HOP-62 was cultured in RPMI 1640 medium, HEPES (Invitrogen, cat. 22400105) with 10% defined fetal bovine serum (HyClone Laboratories Inc., cat. SH30070.03) and 2 mM L-glutamine (Invitrogen, cat. 25030081). The pooled donor HUVEC were cultured in endothelial cell growth medium 2 (PromoCell, Heidelberg, Germany, cat. C-22011) and the hMSC were cultured in mesenchymal stem cell growth medium 2 (PromoCell, cat. C-28009). For all experiments, HUVEC and hMSC were used at passages </=5, while the malignant cell lines were used at passages </=15. […]

Where [1] appears, read: compound alone, run of 07/26/2021.
Where [2] appears, read: curve of first compound, second compound 0.1 µM.
Where [3] appears, read: curve of first compound, second compound 0.316 µM.
[4] abbreviates: curve of first compound, second compound 1 µM.
[5] abbreviates: curve of first compound, second compound 3.16 µM.
Where [6] appears, read: curve of first compound, second compound 10 µM.
Where [7] appears, read: second compound 0.1 µM, first compound 0.01 µM.
The mark [8] stands for this setting: second compound 0.1 µM, first compound 0.0316 µM.
The mark [9] stands for this setting: second compound 0.1 µM, first compound 0.1 µM.
Setting [10] is: second compound 0.316 µM, first compound 0.01 µM.
The mark [11] stands for this setting: second compound 0.316 µM, first compound 0.0316 µM.
[12] abbreviates: second compound 0.316 µM, first compound 0.1 µM.
The mark [13] stands for this setting: second compound 1 µM, first compound 0.01 µM.
Where [14] appears, read: second compound 1 µM, first compound 0.0316 µM.
Setting [15] is: second compound 1 µM, first compound 0.1 µM.
Setting [16] is: second compound 3.16 µM, first compound 0.01 µM.
[17] abbreviates: second compound 3.16 µM, first compound 0.0316 µM.
Setting [18] is: second compound 3.16 µM, first compound 0.1 µM.
[19] abbreviates: second compound 10 µM, first compound 0.01 µM.
The mark [20] stands for this setting: second compound 10 µM, first compound 0.0316 µM.
[21] abbreviates: second compound 10 µM, first compound 0.1 µM.

This note sets out measurements from PubChem BioAssay AID1963858 (Molecular Pharmacology Branch, DTP, NCI, 2024).

Where “and” joins values, the source holds several entries; their conditions need not be identical. Equal entries are not always repeated. Some results are limits rather than exact numbers.

Turning to `C=CC(=O)N1CCN(c2nc(=O)n(-c3c(C)ccnc3C(C)C)c3nc(-c4c(O)cccc4F)c(F)cc23)C(C)C1` (stereo not given), the viability, T/C (compound 3.16 µM) was 65.2% [middle of 17 runs]. Moreover, the IC50 was > 10 µM and 4.34 µM (compound alone, run of 07/19/2021); 8.23 µM [middle of 5 runs] under setting [1].
`C=CC(=O)N1CCN(c2nc(OCC3CCCN3C)nc3c2CCN(c2cccc4cccc(C)c24)C3)CC1CC#N` (stereo not given): for the setting “compound 1 µM”, the viability, T/C is 35.5% [middle of 17 runs]. The IC50 under setting [1] is 622 nM [middle of 6 runs].
As to `COc1cc(Nc2ncc3c(n2)-c2ccc(Cl)cc2C(c2c(F)cccc2OC)=NC3)ccc1C(=O)O`, the viability, T/C was 51% [middle of 5 runs] (compound 0.316 µM), 42.8% [middle of 5 runs] (compound 1 µM), 33.8% [middle of 5 runs] (compound 3.16 µM) and 20.9% [middle of 5 runs] (compound 10 µM).
On to `COc1cc2nc(C)nc(NC(C)c3cc(N)cc(C(F)(F)F)c3)c2cc1OC1CCOC1` (stereo not given), for which the 50% inhibitory concentration (IC50) (compound alone, run of 07/12/2021) is > 10 µM and 9.67 µM.
As to `CC(=O)OC12COC1CC(O)C1(C)C(=O)C(O)C3=C(C)C(OC(=O)C(O)C(NC(=O)OC(C)(C)C)c4ccccc4)CC(O)(C(OC(=O)c4ccccc4)C21)C3(C)C` (stereo not given) + C=CC(=O)N1CCN(c2nc(=O)n(-c3c(C)ccnc3C(C)C)c3nc(-c4c(O)cccc4F)c(F)cc23)C(C)C1, the IC50 runs as follows: under setting [2], below 0.01 µM; under setting [3], below 0.01 µM; under setting [4], below 0.01 µM; under setting [5], below 0.01 µM; under setting [6], below 0.01 µM. Besides, the viability, T/C was 24.3% under setting [7]; 27.3% under setting [8]; 26.8% under setting [9]; 25.1% (second compound 0.1 µM, first compound 0.316 µM); 25.2% (second compound 0.1 µM, first compound 1 µM); 28.5% (second compound 0.1 µM, first compound 3.16 µM). The viability, T/C was 29.5% under setting [10]; 23.9% under setting [11]; 24.7% under setting [12]; 27.3% (second compound 0.316 µM, first compound 0.316 µM); 24.9% (second compound 0.316 µM, first compound 1 µM); 31.1% (second compound 0.316 µM, first compound 3.16 µM). In addition, the viability, T/C by setting is: under setting [13], 29.4%; under setting [14], 23%; under setting [15], 28%; (second compound 1 µM, first compound 0.316 µM) 27.8%; (second compound 1 µM, first compound 1 µM) 30.2%; (second compound 1 µM, first compound 3.16 µM) 30%. Besides, the viability, T/C was 32.8% under setting [16]; 25.4% under setting [17]; 27% under setting [18]; 35.1% (second compound 3.16 µM, first compound 0.316 µM); 32.5% (second compound 3.16 µM, first compound 1 µM); 33.1% (second compound 3.16 µM, first compound 3.16 µM). Also, the viability, T/C runs as follows: under setting [19], 28.1%; under setting [20], 26.9%; under setting [21], 27.9%; (second compound 10 µM, first compound 0.316 µM) 29.9%; (second compound 10 µM, first compound 1 µM) 30.8%; (second compound 10 µM, first compound 3.16 µM) 34.6%.
Turning to `CN(C)C/C=C/C(=O)Nc1cc2c(Nc3ccc(F)c(Cl)c3)ncnc2cc1O[C@H]1CCOC1` + C=CC(=O)N1CCN(c2nc(=O)n(-c3c(C)ccnc3C(C)C)c3nc(-c4c(O)cccc4F)c(F)cc23)C(C)C1, the IC50 is above 0.1 µM under setting [2]; above 0.1 µM under setting [3]; above 0.1 µM under setting [4]; above 0.1 µM under setting [5]; 0.0192 µM under setting [6]. Moreover, the viability, T/C (second compound 0.1 µM, first compound 0.000316 µM) was 65.1%; the viability, T/C (second compound 0.1 µM, first compound 0.001 µM) is 69.1%; the viability, T/C (second compound 0.1 µM, first compound 0.00316 µM) was 67.8%; the viability, T/C under setting [7] is 58.9%; the viability, T/C under setting [8] is 54.4%; the viability, T/C under setting [9] was 65.7%. The viability, T/C was 79.5% (second compound 0.316 µM, first compound 0.000316 µM); 69.9% (second compound 0.316 µM, first compound 0.001 µM); 66% (second compound 0.316 µM, first compound 0.00316 µM); 65% under setting [10]; 51.1% under setting [11]; 58% under setting [12]. The viability, T/C is 81.1% (second compound 1 µM, first compound 0.000316 µM); 80.5% (second compound 1 µM, first compound 0.001 µM); 61.9% (second compound 1 µM, first compound 0.00316 µM); 69.8% under setting [13]; 61.1% under setting [14]; 62.4% under setting [15]. Moreover, the viability, T/C is 71.5% (second compound 3.16 µM, first compound 0.000316 µM); 65.1% (second compound 3.16 µM, first compound 0.001 µM); 70.9% (second compound 3.16 µM, first compound 0.00316 µM); 71.8% under setting [16]; 63.4% under setting [17]; 54% under setting [18]. Also, the viability, T/C (second compound 10 µM, first compound 0.000316 µM) is 56.9%; the viability, T/C (second compound 10 µM, first compound 0.001 µM) is 51.1%; the viability, T/C (second compound 10 µM, first compound 0.00316 µM) is 54.5%; the viability, T/C under setting [19] was 52%; the viability, T/C under setting [20] is 48.6%; the viability, T/C under setting [21] was 42.3%.
